Results as given in a melting point compilation (Tetko et al.; mined from patent text by program, amines drawn as free bases though some values may be those of a salt).

| SMILES | melting point |
| --- | --- |
| CCOC(=O)Cc1ccc(NC(=O)/C=C/c2c(C)noc2-c2ccccc2)cc1 | 164 to 165 °C |
| CC(C)(C)C(=O)Nc1nc(O)c2cc(CCc3ccc(C(=O)O)cc3)cnc2n1 | > 300 °C |
| Cc1ccc(S(=O)(=O)CNc2ccc(C(F)(F)F)cc2)cc1 | 135 °C |
| N#CC(C#N)=C1C=C(C=Cc2ccc(N)cc2)OC(C=Cc2ccc(N)cc2)=C1 | 249 °C |
| COc1cc(Nc2c(C#N)cnc3cc(-c4cnc(C=O)n4C)sc23)c(Cl)cc1Cl | 225 to 227 °C |
| COC1(c2cc(O)cc(F)c2)CCOC1 (stereo unspecified) | 136 to 137 °C |
| CCC(N)(P(=O)(O)O)P(=O)(O)O | 282 °C |
| OCc1ccc(-c2cncc(OC3SCC(O)C(O)C3O)c2)cc1 (stereo unspecified) | 153 °C |
| CCN1C(=O)C(C)(C)C(=O)N(C)c2cc(CN(CCn3ccc4oc(C(F)(F)F)cc4c3=O)Cc3cccnc3C)ccc21 | 132 to 134 °C |
| N#Cc1ccc(Oc2cc(F)cc(F)c2)c([N+](=O)[O-])c1 | 132 to 136 °C |
| CCS(=O)(=O)c1cn(C)cc(-c2cccc(C(F)(F)F)c2)c1=O | 196 to 198 °C |
| COC(=O)c1c(-c2cccc(F)c2)c2cc(OCc3ccccc3)ccc2c(=O)n1CC(C)C | 127 to 128 °C |
| Nc1cc(-c2nnc(SCc3ccc(Cl)cc3)o2)ccn1 | 200 to 201 °C |
| CCn1cc(C(=O)C(=O)O)c2ccc(-c3ccc(C(F)(F)F)cc3)cc21 | 247 to 248 °C |
| CCCOc1cc(NC(=O)C[C@H]2O[C@H](c3cccc(OC)c3OC)c3cc(Cl)ccc3N(CC(C)(C)COC(C)=O)C2=O)cc2cc(C(=O)OC)oc12 | 146 to 147 °C |
| CN1c2ccc(C=C(c3ccccc3)c3ccccc3)cc2Sc2cc(C=C(c3ccccc3)c3ccccc3)ccc21 | 233 to 241 °C |
| COC(=O)Cc1cccc(NC(=O)NCC(=O)O)c1 | 136 °C |
| COC(=O)C(C)(C)NS(=O)(=O)c1ccc2c(Cl)cnc(Cl)c2c1 | 160 to 161 °C |
| CCOC(=O)c1c(C)nc(-c2ccccc2)nc1-c1cc([N+](=O)[O-])ccc1S(C)=O (stereo unspecified) | 130 to 132 °C |
| C#Cc1cnn2c(C3CC3)cc(-c3ccc(Cl)cc3)nc12 | 181 to 182 °C |
| CN(C)C1CCc2[nH]c3cccc(Cl)c3c2C1 (stereo unspecified) | 212 to 214 °C |

| SMILES | melting point |
| --- | --- |
| O=C1NCC(CCl)C1(c1ccccc1)c1ccccc1 (stereo unspecified) | 218 to 219 °C |
| Nc1ncnc2c1c(I)cn2C1CC(O)C(CO)O1 (stereo unspecified) | 194 °C |
| COc1cccc(Nc2nccc(-c3sc(N)nc3-c3ccccc3)n2)c1 | 115 to 117 °C |
| O=c1cc(-c2ccccc2)c2c(O)cc(O)cc2o1 | 179 to 182 °C |
| C=CCNS(=O)(=O)c1ccc(I)cc1 | 76 to 77 °C |
| COc1cc(Nc2c(C#N)cnc3cc(-c4ccsc4CN4CCOCC4)ccc23)c(Cl)cc1Cl | 98 to 100 °C |
| CC(C)(C)n1c(=O)c(=O)[nH]c2ccccc21 | > 300 °C |
| CCC(CC)COc1c(-c2ccc(S(C)(=O)=O)cc2)cnn(-c2ccc(F)cc2)c1=O | 107 to 108 °C |
| COC(=O)c1snc(-c2ccccc2)c1C(=O)OC | 70 to 71.5 °C |
| Oc1ccc2c(c1)COc1c-2cc2ccc(O)cc2c1-c1ccncc1 | > 250 °C |
| CC[C@H]1[C@H](O)CC(=O)N1c1ccc(C#N)c(OC)c1 | 138 to 141 °C |
| CN(C)n1cc(C(=O)O)c(=O)c2cc(F)c(Cl)cc21 | 255 to 256 °C |
| COCC(=O)Nc1nc(NC(=O)COC)c2[nH]cnc2n1 | 219 to 220 °C |
| COc1ccc(-c2sc3ccccc3c2C(=O)c2ccc(O)cc2)cc1 | 188 to 189 °C |
| CCCc1nc2c(N)nc3cc(Oc4ccc(C#N)cc4)ccc3c2n1CC(C)C | 223 to 225 °C |
| CCN(CC)c1nc(NCCCCO)nc(Nc2ccc3cc(-c4ccccc4)c(=O)oc3c2)n1 | 124 to 126 °C |
| COc1ccc2nc(C(=O)O)cnc2c1 | 248 °C |
| O=c1[nH]c2cccc(Br)c2c(=O)o1 | 280 to 281 °C |
| Cc1ccc(-c2ccc3c(c2)C=C(C(=O)Nc2ccc(CN4CCN(C(c5ccccc5)c5ccccc5)CC4)cc2)CC3)cc1 | 217 to 218 °C |
| OCc1ccn(-c2ccc(OC(F)(F)F)cc2)n1 | 53 to 54 °C |
| O=[N+]([O-])c1ccc(/C=C/c2c(F)cccc2F)cc1 | 136 to 137 °C |

| SMILES | melting point |
| --- | --- |
| Clc1cc(-n2cncn2)ncn1 | 93 to 97 °C |
| COC(=O)c1cn(Cc2ccc(OCc3nc(-c4ccccc4)oc3C)cc2)cc1-c1ccccc1 | 115 to 116 °C |
| CC(C)c1oc(C=Cc2ccccc2)nc1CO | 91 to 92 °C |
| NC(=O)CON=C(c1ccc(Cl)cc1)c1ccc(Cl)cc1 | 141 to 142 °C |
| Cc1cc(C)cc(P(=O)(O)c2cc(C)cc(C)c2)c1 | 256 to 261 °C |
| CC1(C)Oc2c(ccc3ccccc23)C2OC21 (stereo unspecified) | 120 to 121 °C |
| CC1(c2ccc(Br)cc2)Cc2cc(O)c(Cl)c(Cl)c2C1=O (stereo unspecified) | 221 to 223 °C |
| O=C(O)[C@H](Cc1ccc(C(F)(F)F)cc1)[C@@H](O)c1ccccc1F (racemic) | 122 to 123 °C |
| Nc1nc2ccc3ccccc3c2s1 | 258 to 260 °C |
| Cc1n[nH]c(=O)n1-c1ccc(OC(F)(F)C(F)F)cc1 | 204 to 205 °C |
| c1ccc2c(c1)CCc1ccc(-c3nnn[nH]3)cc1S2 | 205 °C |
| FC(F)(F)Oc1ccc(-c2ccc(CCl)cn2)cc1 | 34 to 36 °C |
| CCCCN(CCCC)c1ccc2nc3c4ccccc4c(=Nc4ccncc4)cc-3oc2c1 | 188 to 189 °C |
| CC(c1ccc(O)cc1)(c1ccc(O)cc1)c1ccc2ccccc2c1 | 185 to 186 °C |
| O=c1ccoc(C=Cc2ccc(O)cc2)c1 | 198 to 201 °C |
| CCOC(=O)C1(C(=O)Nc2ccc(Br)cc2C)OC1C (stereo unspecified) | 57 to 60 °C |
| COc1ccc(-c2coc3ccc(C(=O)NNC(C)=O)cc23)cc1 | 219 to 220 °C |
| CCCN(CCC)C(Cc1cccc(OC)c1N(C(C)=O)C(C)=O)(C(=O)OCC)C(=O)OCC | 72 to 75 °C |
| C[C@H](Cc1ccc(-c2cc(F)c(C#N)c(F)c2)cc1)c1ccccc1 | 60.7 to 62.2 °C |
| COCCCn1c2cc(C)ccc2n2c(C)nnc12 | 113 to 114 °C |
| CC(=O)OC1CCC2(C)C(=CC(=NO)C3C2CCC2(C)C(OC(C)=O)CCC32)C1 (stereo unspecified) | 236 to 238 °C |

Now from value to compound:

| melting point | SMILES |
| --- | --- |
| 144 to 146 °C | CCCCc1nc2c(N)nc3ccccc3c2n1CCCNC(=S)NCCC |
| 33 to 33.5 °C | CC(=O)/C=C(\C)c1ccc(C2CCCC2)cc1 |
| 40 to 41 °C | O=C(CCCCC1CCSS1)N1CCSC1 (stereo unspecified) |
| 125 to 128 °C | O=C(Nc1ccccc1)N1C(=O)C2(CCCCC2)N(O)C12CCCCC2 |
| 136 to 138 °C | CCCCCC(CC(=O)Nc1cc(C(=O)O)ccc1C(C)(C)C)c1ccc(CCCC)cc1OC (stereo unspecified) |
| 112 to 114 °C | CN(C)CCCc1ccc(OCCCNc2nc(N)nn2C)cc1 |
| 107 to 110 °C | O=C(CBr)NCCC(=O)ON1C(=O)CCC1=O |
| 98 to 99 °C | CC(C)Cc1cc(=O)c2cc(OCCCCCN3CCC(O)CC3)ccc2o1 |
| 97 °C | CCN1C[C@@H](C(=O)OC(C)(C)C)N(C(=O)OCc2ccccc2)C1=O |
| 44 to 45 °C | O=C(NCCc1ccc(F)cc1)OCC1CCCCC1 |
| 75 to 76 °C | CN(Cc1ccc(Cl)cc1)C(=O)CC12CC3CC(CC(C3)C1)C2 |
| 120 to 123 °C | NCCNC(=O)c1ccc2c(c1)OCO2 |
| 132 to 133 °C | CCCCCOc1cc2c(cc1C(=O)Oc1ccc(C(=O)O)cn1)C(C)(C)CCC2(C)C |
| 173 to 174 °C | COc1cc2ncnc(N3CCC(C(C)CN4CCCS4(=O)=O)C(O)C3)c2cc1OC (stereo unspecified) |
| 156 to 158 °C | CCCC(=O)Oc1ccc(C(=O)Nc2ccc3cc(CN4CCCC4)cnc3c2C)cc1 |
| 84 to 85 °C | CCOC(=O)CN(C)S(=O)(=O)c1ccsc1C(=O)OC |
| 173 to 174 °C | O=C(O)c1cc(S(=O)(=O)N2CCCC(OCc3ccccc3)C2)ccc1Cl (stereo unspecified) |
| 133 to 134 °C | NC1=C(C(=O)c2cccs2)C2=C(CCC2)S1=O (stereo unspecified) |
| 101 to 103 °C | Cc1c(C#N)sc2nc(CCCc3ccccc3)nc(N3CCN(C)CC3)c12 |

| melting point | SMILES |
| --- | --- |
| 80 to 82 °C | CCCCCCCCCCCCCc1c[nH]c(C(=O)OC)c1 |
| > 260 °C | CS(=O)(=O)Nn1c(=O)[nH]c2cc([N+](=O)[O-])c(N3CCOCC3)cc2c1=O |
| 86 °C | Cc1cc(CC(=O)O)sc1C(=O)c1ccccc1 |
| 202 °C | Cc1cn2c(nc1=O)CCCCC2 |
| 117 to 118 °C | CCC(C)c1nn(-c2ccc(C(F)(F)F)cn2)cc1CCCOc1c(CC(=O)O)cccc1OC (stereo unspecified) |
| 115 to 116 °C | CC(CO)NC(=O)COc1cc(Cl)ccc1C(=O)NCCN1CCN(Cc2ccc(Cl)c(Cl)c2)CC1 (stereo unspecified) |
| 139 to 143 °C | CC(C)CC(C(=O)OCc1ccc([N+](=O)[O-])cc1)N(C(=O)OC(C)(C)C)C1CC1 (stereo unspecified) |
| 282 to 283 °C | COc1ccc(-c2c(Cl)c(CN3C(=O)CCC3=O)nc3sc4c(c23)CC[C@H](C(N)=O)C4)cc1 |
| 179 to 182 °C | CC(=O)OC1=CC=C2CC3N4CCC25C1OC1C(=O)CCC3(OC4)C15 (stereo unspecified) |
| 87 to 90 °C | O=C1SC[C@@H](CO)N1Cc1ccccc1 |
| 53 to 56 °C | O=C(CBr)c1ccc(OCc2ccccc2)c(CCOCc2ccccc2)c1 |
| 148 to 150 °C | CC(=O)OCCOc1cnc(-c2ncc([N+](=O)[O-])n2C)nc1 |
| 256 to 257 °C | CCCn1c(=O)c2[nH]c(/C=C/c3cccc([N+](=O)[O-])c3)nc2n(CCC)c1=O |
| 178 to 179 °C | CC(=O)NCC1CN(c2ccc(N3CCN(C(=O)CCC(=O)c4ccc(CN5CCOCC5)cc4)CC3)c(F)c2)C(=O)O1 (stereo unspecified) |
| 150 to 154 °C | CC(C)c1ccc(S(=O)(=O)n2c(CCC(=O)O)cc3cc(Cl)ccc32)cc1 |
| 154 to 156 °C | CCC=C(NC(=O)C1CC1(C)C)C(=O)O (stereo unspecified) |
| 169 to 171 °C | CC(C)(C)c1ccc(S(=O)(=O)n2c(CCC(=O)O)cc3cc(Cl)ccc32)cc1 |
| 224 to 226 °C | Cn1c2cc(Cl)cc(Cl)c2c2cc(C(=O)N3CCOCC3)sc21 |
| 174 to 177 °C | O=S(=O)(c1ccc(Cl)cc1)N1CCC[C@@H](Nc2nccc(-c3c(-c4cccc(O)c4)nc4sccn34)n2)C1 |
